From patent publication US12185720B2, “Chitooligosaccharides and methods for use in enhancing plant growth” (NOVOZYMES BIOAG A/S, priority 2011, dated 2025)
“Also recorded” adds a separate entry of the source.

Assays:
[1] = test system: Cotton plants; assay: Cotton foliar experiment (greenhouse); assay type: in vivo; details: sprayed at V4 stage with 10^−8 M; grown up to 4 weeks; FIG. 9
From the text: Cotton seeds were planted and grown to V4 stage (4 leaved stages) and then were sprayed with 10^−8 M of the LCO illustrated in FIG. 2b (also referred to in the examples as the “Pea LCO”) and the pea CO and then left to grow up to 4 weeks with occasional watering with Hoagland solution. Control plants were sprayed with water.

[2] = test system: Hybrid corn seeds (92L90); assay: Corn seed treatment (greenhouse, two trials); assay type: in vivo; details: 3 fl oz/100 lbs of seed; for dry weight increase over LCO: 10^-8 M
Method: Two seed treatment experiments using only Pea LCO, Pea CO and the CO mixtures obtained from chitosan by enzymatic process (structurally distinct from the Pea CO, and also referred to in the examples as the “China CO”) were performed in greenhouse. Hybrid corn seeds (92L90, Peterson Farm, USA) were treated with treatment solution (10^-8 M) at the rate of 3 fl oz/100 lbs of seed. Seeds were planted in plastic pots containing 1:1 Sand:Perlite mixture. Seeds were allowed to grow for about 3-4 weeks and then they were harvested and their dry weight measured.

[3] = test system: Red Clover root hairs; assay: Root hair deformation bioassay, Red Clover; details: compared to LCO
Method: Siratro (Macroptelium atropurpureum) seeds were germinated on moist filter paper in petriplates. When seedlings roots are about 1-inches long, they are severed from the seedlings and treated with 2 ml of 10^−8M treatment solutions in test tubes for 4 hours in the dark. After treatment time is over the solutions are dyed with Congo Red for 10 minutes. After that root segments are observed under a compound microscope to count the number of deformed root hairs in the most sensitive zone of the root segment. Root hair deformation bioassay was also performed using Red Clover in a similar fashion like Siratro above and only visual observation was made and recorded in text form.

[4] = test system: canola seeds; assay: Canola seed germination in petriplates; assay type: in vivo; details: 10^−9 M
Method: (§1) In petriplates on moist filter paper moistened with 10^−9 M treatment solution, canola and wheat seeds were plated for germination. At 18 h after plating, Pea CO induced more canola and wheat seed germination as compared to Pea LCO. Over the period of 21 to 24 hours, seed germination rate for LCO and CO leveled up.

[5] = test system: wheat seeds; assay: Wheat seed germination in petriplates (Example 6); assay type: in vivo; details: 10^−9 M
Method: as §1

[6] = test system: Alfalfa (Medicago sativa) seeds; assay: Alfalfa seed germination; assay type: in vivo; details: 10^−8 M, FIG. 17
Method: Alfalfa (Medicago sativa) seeds were germinated in petriplates on moist filter paper containing Pea LCO and Pea CO treatment solutions (10^−8 M) and petriplates were kept in the dark at room temperature (22° C.).

[7] = test system: wheat seeds (spring wheat); assay: Wheat seed germination and root length in petriplates (Example 8); assay type: in vivo; details: 5 days after plating; FIG. 20
Method: Corn and wheat seeds were plated in petriplates containing 5 ml of treatment solution on a filter paper. Corn seeds were placed on moist filter paper for germination. Similarly, wheat seeds (spring wheat) were placed in petriplates. […] Roots were harvested and their length measured by WinRhizo system.

[8] = test system: Green Mung seeds; assay: Seed germination in multiple crops: Green Mung; assay type: in vivo; details: 24 h, dark, 22° C., FIG. 23
Method: Similar to the seed germination experiment mentioned above, seeds of different crops were placed on moist filter paper in petriplates containing 5 ml liquid in each. Petriplates with seeds were then kept in the dark at 22° C.

[9] = test system: tomato Var. Royal Mounty seeds; assay: Tomato seedling root growth in petriplates (Example 11); assay type: in vivo; details: 22° C.; 5 days in dark; FIG. 24
Method: In petriplate seed germination process, tomato Var. Royal Mounty seeds ware placed on moist filter paper soaked with 5 ml treatment solution. At 22° C. and after 5 days in dark, tomato seedling roots were measured for growth by WinRhizo system.

[10] = test system: Soybean seeds (Pioneer 9oM80); assay: Soybean seed treatment, radicle length; assay type: in vivo; details: after 48 hours, FIG. 25
Method: Soybean seeds (Pioneer 9oM80) were plated in petriplates on moist germination paper soaked with 5 ml of treatment solution containing either water or Soybean LCO, Pea CO and CO plus fatty acids. Seedling radicles were isolated after 48 hours and measured for their length.

[11] = test system: Cotton seeds; assay: Cotton seed treatment (greenhouse); assay type: in vivo; details: seed treatment 10^−8 M, 3 fl oz/100 lbs of seed; 4 wks; FIG. 26
Method: Cotton seeds were treated with LCO and CO 10^−8 M treatment solutions at a dose rate of 3 fl oz/100 lbs of seed. Seeds were planted the very next day in plastic pots containing 1:1 sand:perlite mixture. Seeds were grown in greenhouse for 4 wks and then they were harvested.

[12] = test system: Sorghum seeds; assay: Sorghum seed germination in petriplates; assay type: in vivo; details: CO 10^−8 M, LCO 10^−8 M alone or CO 10^−8 with LCO 10^−9; after 5 days; FIG. 29
Method: Sorghum seeds were germinated in petriplates containing liquid treatment solutions. Seedlings were harvested after 5 days and their roots were measured using WinRHIZO scanner.

[13] = test system: Cotton plants; assay: Cotton foliar application with micronutrients (greenhouse); assay type: in vivo; details: foliar spray Pea CO 10^−8 M, 4 wks after treatment, compared to control
Method: Cotton plants were grown from seeds in greenhouse plastic pots containing sand:perlite in a 1:1 mixture. When seedlings were at the V-stage, they were foliar-sprayed with Pea CO (10^−8 M) and CO plus micronutrients (Ca-pantothenate and boric acid), each in minute amounts. Plants were harvested 4 wks after treatment. Before harvest, leaf greenness was measured by SPAD chlorophyll meter.

[14] = test system: corn; assay: Corn field trials, foliar application, grain yield; assay type: in vivo
[15] = test system: corn; assay: Corn field trials, seed application, grain yield; assay type: in vivo

SMILES: CC(=O)NC1C(O)OC(CO)C(OC2OC(CO)C(OC3OC(CO)C(OC4OC(CO)C(OC5OC(CO)C(O)C(O)C5N)C(O)C4NC(C)=O)C(O)C3NC(C)=O)C(O)C2NC(C)=O)C1O (stereo not drawn) [Pea CO]
- more plant fresh weight increase over LCO [1]: 1.14%
- plant fresh weights over control [1]: significantly increased
- dry weight increase over LCO ([2]; first trial, FIG. 10): 11.84%
- dry weight increase over LCO ([2]; second trial, FIG. 11): 12.63%
- shoot, root and total biomass increase over LCO ([2]; treatment solution 10^-8 M, 3-4 weeks, both experiments): greater
- root hair deformation pattern (visual observation) [3]: much better and prominent; also recorded: best root hair deformer
- seed germination at 18 h as compared to Pea LCO ([4]; FIG. 15): more
- seed germination rate over 21 to 24 hours ([4]; LCO versus CO): leveled up
- seed germination at 18 h as compared to Pea LCO ([5]; FIG. 16): more
- seed germination rate over 21 to 24 hours ([5]; LCO versus CO): leveled up
- effect on alfalfa seed germination (conclusion) [6]: could positively impact
- germination rate at 20 h among control, LCO and CO ([6]; dark, 22° C.): no difference
- more germination over control and LCO at 27 h ([6]; dark, 22° C.): 6%
- increase in root length in wheat [7]: not statistically significant but consistently greater
- wheat root length, CO compared to LCO [7]: outperformed LCO
- seed germination [8]: better germination
- average seedling root length compared to LCO [9]: better than LCO but it was not significantly better
- tomato seedling root length as compared to water control [9]: increased root length
- seedling radicle length [10]: less effective
- cotton plant dry weight [11]: no significant differences; also recorded: relatively higher
- total plant dry weight increase over control [11]: 3.29%
- sorghum seedling root length [12]: increased seedling root length
- leaf greenness (SPAD chlorophyll meter) ([13]; FIG. 30): significantly increased
- average dry plant weight ([13]; FIG. 31): numerical increase
- YIELD, Response Increase [14]: 4.8 % of Control
- CO mean yield better than foliar LCO ([14]; CO minus LCO): 5.0 bu/A
- higher yield increase than foliar LCO ([14]; CO minus LCO): 2.6%
- trials with a positive response, better than foliar LCO ([14]; CO minus LCO): 18.8%
- yield enhancement as a foliar treatment (conclusion) ([14]; CO versus LCO): at least twice better
- YIELD, Mean (N = 16) ([14]; four ounces per acre with glyphosate): 201.8 bu/A
- YIELD, Response ([14]; over Control): 9.2 bu/A
- Positive Yield Response ([14]; percent of the 16 trials): 93.8%
- YIELD, Response Increase [15]: 3.6 % of Control
- YIELD, Mean (N = 10) ([15]; 1×10^−8 molar, 1 μg/acre, 3 fl oz per 50 pounds of seed): 188.0 bu/A
- less positive yield responses than LCO ([15]; amongst the ten trials): 10.0%
- CO mean yield less than LCO ([15]; less): 4.6 bu/A
- less yield increase above the Control than LCO ([15]; less): 2.5%
- YIELD, Response ([15]; over Control): 6.5 bu/A
- Positive Yield Response ([15]; percent of the ten trials): 80.0%
